Molecules are shown by their SMILES.

IC50 and Ratio data for 8 compounds are collected here from ChEMBL document CHEMBL1133495 (Bioorg Med Chem Lett, 2000).

Assay [1] concerns the target Sodium-dependent noradrenaline transporter (Homo sapiens, UniProt P23975). Put plainly: The compound was tested for inhibition of [3H]norepinephrine uptake in HEK cells by expressing cDNA for human norepinephrine transporter. The assay is classed as cell-based, HEK293.
The target in assay [2] is Sodium-dependent serotonin transporter (Homo sapiens, UniProt P31645). Put plainly: The compound was tested for inhibition of [3H]-5-hydroxy tryptamine uptake in HEK cells by expressing cDNA for human […]. The assay is classed as cell-based, HEK293.
Assay [3] has as its target Sodium-dependent dopamine transporter (Homo sapiens, UniProt Q01959). In words: Inhibition of [3H]dopamine uptake in HEK cells expressing human Dopamine transporter. The assay is classed as cell-based, HEK293.
Assay [4] has as its target Monoamine transporters; serotonin & dopamine (Homo sapiens) (UniProt P31645+Q01959). In words: Ratio of 5-hydroxy tryptamine and dopamine transporter inhibition. The assay is classed as protein assay.

Sodium-dependent dopamine transporter, sequence (Q01959 whole entry): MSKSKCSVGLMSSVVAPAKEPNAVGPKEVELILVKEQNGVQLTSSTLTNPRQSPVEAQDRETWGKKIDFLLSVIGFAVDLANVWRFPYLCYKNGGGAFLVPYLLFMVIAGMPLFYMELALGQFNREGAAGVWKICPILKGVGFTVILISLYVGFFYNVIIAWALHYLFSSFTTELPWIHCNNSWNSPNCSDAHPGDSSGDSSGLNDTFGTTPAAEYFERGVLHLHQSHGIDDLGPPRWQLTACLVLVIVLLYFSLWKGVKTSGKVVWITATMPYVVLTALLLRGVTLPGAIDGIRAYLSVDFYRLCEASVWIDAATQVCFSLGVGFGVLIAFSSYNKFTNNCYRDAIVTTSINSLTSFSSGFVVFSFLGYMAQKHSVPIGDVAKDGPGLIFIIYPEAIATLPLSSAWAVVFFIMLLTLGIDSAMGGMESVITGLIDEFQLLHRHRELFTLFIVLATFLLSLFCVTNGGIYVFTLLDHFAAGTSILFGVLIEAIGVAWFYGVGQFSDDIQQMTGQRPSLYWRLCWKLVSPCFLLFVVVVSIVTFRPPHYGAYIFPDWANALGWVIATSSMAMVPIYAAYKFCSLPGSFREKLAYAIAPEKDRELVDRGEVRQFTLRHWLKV
Monoamine transporters; serotonin & dopamine (Homo sapiens), sequence (P31645 whole entry, looked up): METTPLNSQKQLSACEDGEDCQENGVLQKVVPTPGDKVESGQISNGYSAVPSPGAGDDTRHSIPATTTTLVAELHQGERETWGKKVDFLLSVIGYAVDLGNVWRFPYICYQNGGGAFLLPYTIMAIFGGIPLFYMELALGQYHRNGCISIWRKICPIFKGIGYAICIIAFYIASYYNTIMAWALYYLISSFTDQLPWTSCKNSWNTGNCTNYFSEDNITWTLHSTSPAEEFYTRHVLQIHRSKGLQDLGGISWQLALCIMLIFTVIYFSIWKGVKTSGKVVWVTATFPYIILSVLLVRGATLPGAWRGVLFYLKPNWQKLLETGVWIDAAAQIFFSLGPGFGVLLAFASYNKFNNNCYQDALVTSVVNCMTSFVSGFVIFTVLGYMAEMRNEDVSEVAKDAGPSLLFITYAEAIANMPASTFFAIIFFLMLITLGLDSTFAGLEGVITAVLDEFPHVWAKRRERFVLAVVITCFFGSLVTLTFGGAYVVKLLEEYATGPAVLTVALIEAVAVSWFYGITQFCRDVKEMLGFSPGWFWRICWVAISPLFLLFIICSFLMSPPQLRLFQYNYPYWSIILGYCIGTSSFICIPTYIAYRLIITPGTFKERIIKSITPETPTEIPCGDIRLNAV
Monoamine transporters; serotonin & dopamine (Homo sapiens), sequence (Q01959 whole entry, looked up): as the sequence (Q01959 whole entry) above
Sodium-dependent serotonin transporter, sequence (P31645 whole entry): as the sequence (P31645 whole entry, looked up) above
Sodium-dependent noradrenaline transporter, sequence (P23975 whole entry): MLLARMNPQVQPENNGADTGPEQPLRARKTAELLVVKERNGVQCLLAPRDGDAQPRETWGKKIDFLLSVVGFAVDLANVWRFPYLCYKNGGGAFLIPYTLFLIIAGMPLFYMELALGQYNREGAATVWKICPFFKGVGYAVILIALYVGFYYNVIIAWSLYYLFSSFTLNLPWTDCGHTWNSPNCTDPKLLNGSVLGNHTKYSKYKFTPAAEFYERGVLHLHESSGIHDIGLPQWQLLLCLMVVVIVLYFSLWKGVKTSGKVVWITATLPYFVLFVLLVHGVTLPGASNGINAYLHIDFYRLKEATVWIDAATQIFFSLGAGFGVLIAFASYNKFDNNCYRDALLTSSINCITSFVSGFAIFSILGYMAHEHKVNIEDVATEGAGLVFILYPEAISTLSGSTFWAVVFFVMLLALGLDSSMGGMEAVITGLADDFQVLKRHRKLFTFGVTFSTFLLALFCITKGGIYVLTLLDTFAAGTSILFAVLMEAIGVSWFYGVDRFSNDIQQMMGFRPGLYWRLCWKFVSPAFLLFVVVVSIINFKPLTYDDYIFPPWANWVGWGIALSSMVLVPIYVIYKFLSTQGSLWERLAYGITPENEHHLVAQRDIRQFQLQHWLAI

As a reminder, the IC50 is the midpoint of a concentration-inhibition curve. Low readings indicate greater potency in that assay, high ones weaker potency in that assay. Regarding `Cc1ccc([C@H]2C[C@H]3CCC4C2[C@@](O)(c2ccccc2)CN43)cc1`, the values for the IC50 in assay [1] and in assay [2] were 11 nM and 7.9 nM, respectively.

On to `CCCC1C2C3CCN2[C@H](C3)C[C@@H]1c1ccc(C)cc1` (stereo partly drawn), for which the IC50 in assay [1] came out at 109 nM; in assay [3], 570 nM.

As to `Cc1ccc([C@H]2C[C@H]3CCC4C2[C@](C)(O)CN43)cc1`, the Ratio in assay [4] was found to be 0.38. The IC50 in assay [1] came to 296 nM; in assay [2] it was 147 nM; in assay [3] it was 390 nM.

On to `CCC[C@@]1(O)CN2C3CC[C@@H]2C[C@H](c2ccc(C)cc2)C31`, for which the Ratio in assay [4] is 0.11. Further, the values for the half-inhibitory concentration (IC50) in assay [1], in assay [2] and in assay [3] were 18 nM, 41 nM and 373 nM, respectively.

Turning to `Cc1ccc([C@H]2C[C@H]3CCC4C2C(=O)CN43)cc1`, the Ratio in assay [4] was 0.13. Moreover, the IC50 was determined as 110 nM in assay [1], 68 nM in assay [2] and 538 nM in assay [3].

`Cc1ccc([C@H]2C[C@H]3CCC4C2[C@@](O)(c2ccc(Cl)cc2)CN43)cc1`: the Ratio in assay [4] turned out to be 0.3. Moreover, the values for the IC50 in assay [1], in assay [2] and in assay [3] were 23 nM, 13 nM and 44 nM, respectively.

Take `C=C1CN2C3CC[C@@H]2C[C@H](c2ccc(C)cc2)C13`: the Ratio in assay [4] amounted to 0.49. The IC50 was found to be 2.2 nM in assay [1], 33 nM in assay [2] and 67 nM in assay [3].

For `O=C1CN2C3CC[C@@H]2C[C@H](c2ccc(F)cc2)C13`, the Ratio in assay [4] stood at 0.076. Besides, the IC50 was determined as 620 nM in assay [1], 251 nM in assay [2] and 3320 nM in assay [3].
